Where two headings read alike, the source gives them in different places.
What was measured:
Type in all cases: in vivo
[1] = system: Rhyncosporium secalis; test: Barley Scald (RHYNSE) disease control; settings: Hordeum vulgare, 24 h, 1 Day Protectant, read-out: Disease Control RHYNSE 1 DP
Procedure: Technical grades of materials were dissolved in acetone, which were then mixed with nine volumes of water containing 110 ppm Triton X-100. The fungicide solutions were applied onto wheat seedlings using an automated booth sprayer to run-off. All sprayed plants were allowed to air dry prior to further handling. All fungicides were evaluated using the aforementioned method for their activity vs. all target diseases. Wheat leaf blotch and brown rust activity were also evaluated using track spray applications, in which case the fungicides were formulated as EC formulations, containing 0.1% Trycol 5941 in the spray solutions. Wheat plants (variety Yuma) were grown from seed in a greenhouse in 50% mineral soil/50% soil-less Metro mix until the first leaf was fully emerged, with 7-10 seedlings per pot. These plants were inoculated with an aqueous spore suspension of Septoria tritici either prior to or after fungicide treatments. After inoculation the plants were kept in 100% relative humidity (one day in a dark dew chamber followed by two to three days in a lighted dew chamber at 20° C.) to permit spores to germinate and infect the leaf. The plants were then transferred to a greenhouse set at 20° C. for disease to develop. When disease symptoms were fully expressed on the 1st leaves of untreated plants, infection levels were assessed on a scale of 0 to 100 percent disease severity. Percent disease control was calculated using the ratio of disease severity on treated plants relative to untreated plants. Barley seedlings (variety Harrington) were propagated in soil-less Metro mix, with each pot having 8 to 12 plants, and used in the test when first leaf was fully emerged. Test plants were inoculated by an aqueous spore suspension of Rhyncosporium secalis 24 hr after fungicide treatments. After inoculation the plants were kept in a dew room at 20° C. with 100% relative humidity for 48 hr. The plants were then transferred to a greenhouse set at 20° C. for disease to develop. Fungicide formulation, application and disease assessment on the sprayed leaves followed the procedures as described in the Example A.

[2] = system: Mycosphaerella graminicola; Anamorph: Septoria tritici; test: Leaf Blotch of Wheat (SEPTTR) disease control; settings: Zymoseptoria tritici; for pest or weed control at 100 ppm: rate 100 ppm
Outline: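 Protective or curative format: Septoria tritici inoculation either preceded or followed fungicide application to first-leaf Yuma wheat. Severity scored 0–100%; control expressed versus untreated.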

[3] = system: Puccinia triticina; Synonym: Puccinia recondite f. Sp. Tritici; test: Wheat Brown Rust (PUCCRT) disease control; settings: Puccinia triticina, topical; for pest or weed control at 100 ppm: rate 100 ppm
Outline: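 Brown rust on first-leaf Yuma wheat: spore inoculation before or after spray application (acetone/Triton X-100 solution, or EC with Trycol in track spray), overnight 100% RH at 22 °C, disease developed at 24 °C. Severity scored 0–100% and converted to percent control against untreated.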

[4] = 24 h, 1 Day Protectant, rate 121.5 g/H, read-out: SEPTTR 1 DP disease control
[5] = 72 h, 3 Day Curative, rate 121.5 g/H, read-out: SEPTTR 3 DC disease control
[6] = 24 h, 1 Day Protectant, rate 121.5 g/H, read-out: PUCCRT 1 DP disease control
[7] = 72 h, 3 Day Curative, rate 121.5 g/H, read-out: PUCCRT 3 DC disease control
[8] = 24 h, 1 Day Protectant, read-out: SEPTTR 1 DP disease control
[9] = 72 h, 3 Day Curative, read-out: SEPTTR 3 DC disease control
[10] = 24 h, 1 Day Protectant, read-out: PUCCRT 1 DP disease control
[11] = 72 h, 3 Day Curative, read-out: PUCCRT 3 DC disease control

Structure (SMILES) | pest or weed control at 100 ppm [1] [%] | pest or weed control at 121.5 g/ha [2, 4] [%] | pest or weed control at 121.5 g/ha [2, 5] [%] | pest or weed control at 121.5 g/ha [3, 6] [%] | pest or weed control at 121.5 g/ha [3, 7] [%] | pest or weed control at 100 ppm [2, 8] [%] | pest or weed control at 100 ppm [2, 9] [%] | pest or weed control at 100 ppm [3, 10] [%] | pest or weed control at 100 ppm [3, 11] [%] | pest or weed control at 121.5 g/ha ([2]; 24 h, Wheat Leaf Blotch, 1 Day Protectant, rate 121.5 g/H (low volume application), read-out: Disease control SEPTTR 1 DP) [%] | pest or weed control at 121.5 g/ha ([2]; 72 h, Wheat Leaf Blotch, 3 Day Curative, rate 121.5 g/H (low volume application), read-out: Disease control SEPTTR 3 DC) [%] | pest or weed control at 121.5 g/ha ([3]; 24 h, Wheat Brown Rust, 1 Day Protectant, rate 121.5 g/H (low volume application), read-out: Disease control PUCCRT 1 DP) [%] | pest or weed control at 121.5 g/ha ([3]; 72 h, Wheat Brown Rust, 3 Day Curative, rate 121.5 g/H (low volume application), read-out: Disease control PUCCRT 3 DC) [%]
CCCO[C@@H]1[C@@H](Cc2ccccc2)CCC[C@H](NC(=O)c2nccc(OC)c2OC(C)=O)C(=O)O[C@H]1C [Compound F88] | 80 to 100 | 80 to 100 | 80 to 100 | 80 to 100 | 80 to 100 |  |  |  |  |  |  |  | 
CCOCC(=O)OCOc1c(OC)ccnc1C(=O)N[C@H]1CCC[C@H](Cc2ccc(F)cc2)[C@@H](OCC(C)C)[C@H](C)OC1=O [Compound F168] |  | 80 to 100 | 80 to 100 | 80 to 100 | 80 to 100 | 80 to 100 | 80 to 100 | 80 to 100 | 80 to 100 |  |  |  | 
CCOCC(=O)OCOc1c(OC)ccnc1C(=O)N[C@H]1CCC[C@H](CC2CCCCC2)[C@@H](OCC(C)C)[C@H](C)OC1=O [Compound F175] | 80 to 100 | 80 to 100 | 0 to 80 | 80 to 100 | 0 to 80 | 80 to 100 | 80 to 100 | 80 to 100 | 80 to 100 |  |  |  | 
COc1ccnc(C(=O)N[C@H]2CCC[C@H](Cc3ccc(F)cc3)[C@@H](OCC(C)C)[C@H](C)OC2=O)c1OCOC(C)=O [Compound F102] |  | 80 to 100 | 80 to 100 | 80 to 100 | 0 to 80 | 80 to 100 | 80 to 100 | 80 to 100 | 80 to 100 |  |  |  | 
COc1ccc(C[C@H]2CCC[C@H](NC(=O)c3nccc(OC)c3OCOC(C)=O)C(=O)O[C@@H](C)[C@@H]2Oc2ccccc2)cc1 [Compound F114] | 80 to 100 | 80 to 100 | 80 to 100 | 80 to 100 | 0 to 80 | 80 to 100 | 80 to 100 | 80 to 100 | 80 to 100 |  |  |  | 
CCCO[C@@H]1[C@@H](Cc2ccc(F)cc2)CCC[C@H](NC(=O)c2nccc(OC)c2OCOC(C)=O)C(=O)O[C@H]1C [Compound F101] | 80 to 100 | 80 to 100 | 80 to 100 | 80 to 100 | 80 to 100 | 80 to 100 | 80 to 100 | 80 to 100 | 80 to 100 |  |  |  | 
CCOCC(=O)OCOc1c(OC)ccnc1C(=O)N[C@H]1CCC[C@H](Cc2ccccc2)[C@@H](OCC2CC2)[C@H](C)OC1=O [Compound F173] | 80 to 100 | 80 to 100 | 80 to 100 | 80 to 100 | 80 to 100 | 80 to 100 | 80 to 100 | 80 to 100 | 80 to 100 |  |  |  | 
CCOCC(=O)OCOc1c(OC)ccnc1C(=O)N[C@H]1CCC[C@H](CCF)[C@@H](OCC(C)C)[C@H](C)OC1=O [Compound F181] | 0 to 80 | 80 to 100 | 80 to 100 | 80 to 100 | 80 to 100 | 80 to 100 | 80 to 100 | 80 to 100 | 80 to 100 |  |  |  | 
CCCO[C@@H]1[C@@H](Cc2ccc(OC)cc2)CCC[C@H](NC(=O)c2nccc(OC)c2OCOC(C)=O)C(=O)O[C@H]1C [Compound F119] | 80 to 100 | 80 to 100 | 80 to 100 | 80 to 100 | 80 to 100 | 80 to 100 | 80 to 100 | 80 to 100 | 80 to 100 |  |  |  | 
COc1ccnc(C(=O)N[C@H]2CCC[C@H](Cc3ccccc3)[C@@H](OCC3CC3)[C@H](C)OC2=O)c1OCOC(C)=O [Compound F107] | 80 to 100 | 80 to 100 | 80 to 100 | 80 to 100 | 80 to 100 | 80 to 100 | 80 to 100 | 80 to 100 | 80 to 100 |  |  |  | 
COc1ccnc(C(=O)N[C@H]2CCC[C@H](CC3CCCCC3)[C@@H](OCC(C)C)[C@H](C)OC2=O)c1OCOC(C)=O [Compound F113] | 80 to 100 | 80 to 100 | 80 to 100 | 80 to 100 | 80 to 100 | 80 to 100 | 80 to 100 | 80 to 100 | 80 to 100 |  |  |  | 
COc1ccc(C[C@H]2CCC[C@H](NC(=O)c3nccc(OC)c3OCOC(C)=O)C(=O)O[C@@H](C)[C@@H]2OCC(C)C)cc1 [Compound F118] | 80 to 100 | 80 to 100 | 80 to 100 | 80 to 100 | 80 to 100 | 80 to 100 | 80 to 100 | 80 to 100 | 80 to 100 |  |  |  | 
COc1ccnc(C(=O)N[C@H]2CCC[C@H](Cc3ccc(C)cc3)[C@@H](OCC(C)C)[C@H](C)OC2=O)c1OCOC(C)=O [Compound F126] | 80 to 100 | 80 to 100 | 80 to 100 | 80 to 100 | 0 to 80 | 80 to 100 | 80 to 100 | 80 to 100 | 80 to 100 |  |  |  | 
CCCO[C@@H]1[C@@H](Cc2ccccc2)CCC[C@H](NC(=O)c2nccc(OC)c2OC(=O)CCOC)C(=O)O[C@H]1C [Compound F198] | 80 to 100 |  |  |  |  |  |  |  |  | 80 to 100 | 80 to 100 | 80 to 100 | 80 to 100
COc1ccnc(C(=O)N[C@H]2CCC[C@H](Cc3ccccc3)[C@@H](OCC3CC3)[C@H](C)OC2=O)c1OCOC(=O)C(C)C [Compound F152] | 80 to 100 | 80 to 100 | 80 to 100 | 80 to 100 | 80 to 100 | 80 to 100 | 80 to 100 | 80 to 100 | 80 to 100 |  |  |  | 
CCO[C@@H]1[C@@H](Cc2ccccc2)CCC[C@H](NC(=O)c2nccc(OC)c2OC(C)=O)C(=O)O[C@H]1C [Compound F87] | 80 to 100 | 80 to 100 | 80 to 100 | 80 to 100 | 80 to 100 |  |  |  |  |  |  |  | 
